Measurements from patent US9518038B2, “Condensation product of theanine derivative and carboxylic acid coumarin derivative, its intermediate, preparation method and use thereof” (SHANDONG YINGDONG YINGHAO BIOTECHNOLOGY, INC., priority 2012, dated 2016).
Marks after values point to notes of the source that are not given here.

Columns and labels:
HDAC3 = HDAC3 enzyme activity in nuclear extracts of LLC tumors of treated mice; conditions: LLC tumor grown in vivo; first value of the pair HDAC3 and HDAC4; SAHA 25 mg/kg
Method: (§3) For the detection of the effect of the drugs on enzyme activity of EZH2 and HDAC of in-vivo tumors, the tumors were separately excised after 6 h of medication, total proteins and nucleoproteins were extracted separately to detect and analyze the activity of the enzyme.
(§4) (2) 50 μl of diluted sample solution was added into each reaction well, the plate was sealed with a plate-sealing film and reacted at room temperature for 30 min;
(§5) (3) the plate-sealing film was carefully peeled off, the liquid was removed, dried, 150 μl of washing liquid was added into each well, stood for 30 s, then the liquid was removed, repeated twice, and dried;
(§6) (4) 2 μl of HDAC enzyme or tumor tissue nuclear extracts was respectively uniformly mixed with 28 μl of diluted sample solution, added into the wells, the plate was sealed with the plate-sealing film and reacted at 37° C. for 60 min;
(§7) (5) the plate was washed for three times, wherein the operation was the same as that in (3); and a diluted antibody capture working solution was added into each reaction well according to 50 μl/well and reacted on a shaking bed at room temperature for 60 min; […]
(§8) (10) the light absorbance (OD value) of each well was measured in sequence at the wavelength of 450 nm; wherein the measurement should be performed within 15 min after addition of the stop solution; and

HDAC4 = HDAC4 enzyme activity in nuclear extracts of LLC tumors of treated mice; conditions: LLC tumor grown in vivo; second value of the pair HDAC3 and HDAC4; SAHA 25 mg/kg
Method: as §3, §4, §5, §6, §7, §8

EZH2 = target: T1, EZH2 (Mus musculus, UniProt Q61188); experiment: EZH2 enzyme activity in protein extracts of LLC tumors of treated mice (EZH2 Assay Kit); conditions: LLC tumor grown in vivo; tumors excised 6 h after medication; SAHA 25 mg/kg
T1 construct: the EZH2 enzyme was replaced with tumor protein extracts in each group; from tissue; host or cells: Lewis lung cancer tumours from treated mice

MMP-9 = experiment: Western Blotting, MMP9 level; format: cell-based; conditions: human liver cancer cells, Lewis lung cancer cells and other cancer cell lines and tumor tissues, read-out: Effective concentration (IC50) for inhibition of MMP9
Source text: (§1) Antibodies: primary antibodies of VEGFR, EGFR, c-Met, K-Ras, H-Ras, Akt, NF-κB, Cyclin D1, ER-alpha, Dvl-1, Dvl-2, Dvl-3, MMP-9, MMP2, β-catenin, Bcl-2, Bax, p53, p21, E-cadherin and Caspase3 protein, purchased from American Cell Signaling Technology Company and Santa Cruz Technology Company; and H3 acetylation, H4 acetylation and HDAC (HDAC3, HDAC4 and the like) Antibody Sample Kits, purchased from Cell Signaling Technology Company of the U.S.
(§2) (3) polyacrylamide gel electrophoresis (SDS-PAGE): an equal amount of protein lysate sample was used to separate protein, film transfer, and blocking, treated with appropriate primary antibodies and secondary antibodies in sequence, and the film was washed, then the color was developed with ECL kit, and a blot protein band was detected by exposure of an X-ray film; and a Gel-Pro Analyzer was used for quantitative analysis of gray degree, optical density value of the control group and the drug treatment group in various concentration were respectively compared with that of internal reference, the obtained ratios were respectively compared with the control group, and the protein expression level was semi-quantified.

Dvl-3 = experiment: Western Blotting, Dvl-3 level; format: cell-based; conditions: human liver cancer cells, Lewis lung cancer cells and other cancer cell lines and tumor tissues, read-out: Effective concentration (IC50) for inhibition of DVl-3
Source text: as §1, §2

ER-alpha = experiment: Western Blotting, ER-alpha level; format: cell-based; conditions: human liver cancer cells, Lewis lung cancer cells and other cancer cell lines and tumor tissues, read-out: Effective concentration (IC50) for inhibition of ER-alpha
Source text: as §1, §2

MMP-2 = experiment: Western Blotting, MMP2 level; format: cell-based; conditions: human liver cancer cells, Lewis lung cancer cells and other cancer cell lines and tumor tissues, read-out: Effective concentration (IC50) for inhibition of MMP2
Source text: as §1, §2

Dvl-2 = experiment: Western Blotting, Dvl-2 level; format: cell-based; conditions: human liver cancer cells, Lewis lung cancer cells and other cancer cell lines and tumor tissues, read-out: Effective concentration (IC50) for inhibition of Dvl-2
Source text: as §1, §2

T1 sequence (Q61188 whole entry): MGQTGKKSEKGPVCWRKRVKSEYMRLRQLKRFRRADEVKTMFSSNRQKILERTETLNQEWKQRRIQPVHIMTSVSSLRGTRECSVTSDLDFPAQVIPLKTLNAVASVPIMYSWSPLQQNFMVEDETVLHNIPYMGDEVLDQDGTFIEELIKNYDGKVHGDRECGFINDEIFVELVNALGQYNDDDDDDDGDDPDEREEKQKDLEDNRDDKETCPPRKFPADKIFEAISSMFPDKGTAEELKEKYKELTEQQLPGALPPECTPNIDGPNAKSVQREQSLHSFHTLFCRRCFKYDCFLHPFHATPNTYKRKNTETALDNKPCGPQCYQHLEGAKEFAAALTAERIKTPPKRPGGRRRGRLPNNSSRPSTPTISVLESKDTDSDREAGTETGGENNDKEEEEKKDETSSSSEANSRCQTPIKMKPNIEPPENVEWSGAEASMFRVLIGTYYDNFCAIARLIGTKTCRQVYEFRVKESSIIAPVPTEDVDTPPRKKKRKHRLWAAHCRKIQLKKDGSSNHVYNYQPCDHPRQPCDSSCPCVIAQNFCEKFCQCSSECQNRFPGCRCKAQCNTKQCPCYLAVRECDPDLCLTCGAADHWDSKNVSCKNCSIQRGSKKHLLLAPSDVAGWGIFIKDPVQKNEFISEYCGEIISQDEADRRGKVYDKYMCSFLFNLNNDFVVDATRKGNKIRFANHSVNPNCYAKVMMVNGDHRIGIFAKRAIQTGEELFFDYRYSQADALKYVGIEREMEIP
T1 sequence (Q921E6 whole entry partner): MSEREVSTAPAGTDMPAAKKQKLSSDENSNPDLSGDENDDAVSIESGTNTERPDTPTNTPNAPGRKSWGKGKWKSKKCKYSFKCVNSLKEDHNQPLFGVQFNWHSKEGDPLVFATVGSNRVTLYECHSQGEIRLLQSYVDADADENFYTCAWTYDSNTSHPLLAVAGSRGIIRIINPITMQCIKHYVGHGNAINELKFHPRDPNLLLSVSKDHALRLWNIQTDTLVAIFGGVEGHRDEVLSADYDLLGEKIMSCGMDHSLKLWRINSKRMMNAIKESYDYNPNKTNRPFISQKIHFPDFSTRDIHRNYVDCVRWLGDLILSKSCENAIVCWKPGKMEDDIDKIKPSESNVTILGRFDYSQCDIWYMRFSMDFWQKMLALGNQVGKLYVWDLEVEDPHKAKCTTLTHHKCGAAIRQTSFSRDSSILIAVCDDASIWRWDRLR
T1 sequence (Q80U70 whole entry partner): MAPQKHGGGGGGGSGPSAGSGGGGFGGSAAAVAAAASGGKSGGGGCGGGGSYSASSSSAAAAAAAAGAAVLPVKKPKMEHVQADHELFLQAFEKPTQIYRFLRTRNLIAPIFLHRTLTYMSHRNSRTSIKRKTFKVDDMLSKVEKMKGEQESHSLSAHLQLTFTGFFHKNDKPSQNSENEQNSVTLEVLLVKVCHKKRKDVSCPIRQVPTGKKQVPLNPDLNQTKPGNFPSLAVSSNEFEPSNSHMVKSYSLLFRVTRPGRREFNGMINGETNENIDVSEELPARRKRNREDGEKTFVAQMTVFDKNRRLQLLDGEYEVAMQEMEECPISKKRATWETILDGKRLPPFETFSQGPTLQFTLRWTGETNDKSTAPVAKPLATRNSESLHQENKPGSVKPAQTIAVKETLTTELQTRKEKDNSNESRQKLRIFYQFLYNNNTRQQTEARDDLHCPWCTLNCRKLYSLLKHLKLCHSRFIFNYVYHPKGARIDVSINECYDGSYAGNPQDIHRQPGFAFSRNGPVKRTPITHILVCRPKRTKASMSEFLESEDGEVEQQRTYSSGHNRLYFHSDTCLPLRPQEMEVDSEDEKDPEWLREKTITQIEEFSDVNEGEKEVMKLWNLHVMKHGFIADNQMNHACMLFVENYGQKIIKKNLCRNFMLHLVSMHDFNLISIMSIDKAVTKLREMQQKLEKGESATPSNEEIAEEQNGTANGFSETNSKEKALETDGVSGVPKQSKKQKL

CCNC(=O)CCC(NC(=O)c1cc2ccccc2oc1=O)C(=O)OC (stereo not shown) [Compound Ia, methyl 5-ethylamino-5-oxo-2-(2-oxo-2H-benzopyran-3-carboxamido)pentanoate]
decrease of HDAC3 enzyme activity/inhibition rate (HDAC3): 55%* and | decrease of HDAC4 enzyme activity/inhibition rate (HDAC4): 52%*(LLC)- | decrease of EZH2 enzyme activity/inhibition rate (EZH2): 52%(LLC)-

CCNC(=O)CC[C@@H](NC(=O)c1cc2cc(Br)cc(Br)c2oc1=O)C(=O)OCC [Compound Ih, (R)-2-(6,8-dibromo-2-oxo-2H-benzopyran-3-carboxamido)-5-ethylamino-5-oxo-pentanoic ethyl ester]
IC50 (MMP-9): < 65 µM | IC50 (Dvl-3): < 100 µM | IC50 (ER-alpha): < 100 µM | IC50 (MMP-2): < 50 µM | IC50 (Dvl-2): < 100 µM

CCNC(=O)CC[C@@H](NC(=O)c1cc2cc(Cl)cc(Cl)c2oc1=O)C(=O)OCC [Compound Ig, (R)-2-(6,8-dichloro-2-oxo-2H-benzopyran-3-carboxamido)-5-ethylamino-5-oxo-pentanoic ethyl ester]
IC50 (MMP-9): < 65 µM | IC50 (Dvl-3): < 100 µM | IC50 (ER-alpha): < 100 µM | IC50 (MMP-2): < 50 µM | IC50 (Dvl-2): < 100 µM
